Experimental data reported in ChEMBL document CHEMBL1159263, “Cyclic peptides from higher plants, Part 15. Pseudostellarin H, a new cyclic octapeptide from Pseudostellaria heterophylla” (J Nat Prod, 1995).
Peptide text beside a SMILES is read from it.

Target: T1, Tyrosinase (Homo sapiens) (UniProt P14679)
T1 sequence (whole entry): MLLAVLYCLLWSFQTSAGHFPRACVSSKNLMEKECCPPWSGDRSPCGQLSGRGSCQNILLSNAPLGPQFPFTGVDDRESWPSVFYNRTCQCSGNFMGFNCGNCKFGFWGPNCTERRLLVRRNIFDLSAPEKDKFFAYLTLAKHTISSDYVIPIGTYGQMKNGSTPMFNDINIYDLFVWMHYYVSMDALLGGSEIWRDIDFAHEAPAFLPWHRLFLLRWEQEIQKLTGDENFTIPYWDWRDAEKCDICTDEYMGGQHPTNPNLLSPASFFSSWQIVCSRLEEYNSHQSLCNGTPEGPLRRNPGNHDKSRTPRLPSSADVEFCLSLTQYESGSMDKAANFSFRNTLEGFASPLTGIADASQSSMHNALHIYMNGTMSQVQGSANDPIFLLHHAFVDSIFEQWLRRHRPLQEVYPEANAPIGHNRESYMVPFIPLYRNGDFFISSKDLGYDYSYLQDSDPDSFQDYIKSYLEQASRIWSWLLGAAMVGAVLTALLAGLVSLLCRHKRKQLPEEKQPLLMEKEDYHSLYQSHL
Assay: Inhibition of tyrosinase at 800 uM by dopachrome method

inhibition: 15%
SMILES: CC(C)C[C@@H]1NC(=O)[C@@H]2CCCN2C(=O)[C@H]([C@@H](C)O)NC(=O)[C@@H]2CCCN2C(=O)[C@H]([C@@H](C)O)NC(=O)CNC(=O)[C@H](Cc2ccccc2)NC(=O)[C@H](Cc2ccccc2)NC1=O (cyclo(FFGTPTPL))
